Laboratory results published in PMC12004362 (RSC Advances, 2025).
Read-outs that look alike come from different tables or passages of the source.

What was measured:
BT-16 cells = assay: Secondary screening; assay type: cell-based, human
BT-12 cells = assay: Secondary screening; assay type: cell-based, human
in vitro [1] = conditions: human, primary human astrocytes
[2] = acute use for gout flares, doses up to 1.8 mg within 2 hours; cited from earlier work
in vitro [3] = conditions: human
[4] = tested on: human cerebral microvascular endothelial cells (hCMEC/D3 cells)
primary human astrocytes = assay: Cytotoxicity test
[5] = Homo sapiens, BT-16, 72 h, read-out: BT-16 cells IC50, 2D culture, 72 h, MTT
[6] = read-out: BT-16 cells IC50, 2D culture, 72 h, MTT
[7] = Homo sapiens, BT-12, 72 h, read-out: BT-12 cells IC50, 2D culture, 72 h, MTT
[8] = read-out: BT-12 cells IC50, 2D culture, 72 h, MTT

| Compound | IC50 (BT-16 cells; [5]) [µM] | IC50 (BT-16 cells; [6]) [µM] | IC50 (BT-12 cells; [7]) [µM] | IC50 (BT-12 cells; [8]) [µM] | CC50 at 72 h (in vitro [1]) [µM] | Diarrhea, most frequently reported side effect [2] [%] | CC50 at 72 h (in vitro [3]) [µM] | SI (CC50/IC50) hCMEC/D3: BT-12 ([4]; CC50 hCMEC/D3 / IC50 BT-12) | SI (CC50/IC50) hCMEC/D3: BT-16 ([4]; CC50 hCMEC/D3 / IC50 BT-16) | SI (CC50/IC50) Astrocytes: BT-12 (primary human astrocytes; CC50 astrocytes / IC50 BT-12) | SI (CC50/IC50) Astrocytes: BT-16 (primary human astrocytes; CC50 astrocytes / IC50 BT-16) |
| --- | --- | --- | --- | --- | --- | --- | --- | --- | --- | --- | --- |
| CC[C@H]1CN2CCc3cc(OC)c(OC)cc3[C@@H]2C[C@@H]1C[C@H]1NCCc2cc(OC)c(OC)cc21 [Emetine] | < 0.1 | 0.093 | < 0.1 | 0.09 | 1.24 |  |  |  |  |  |  |
| C[C@H]1O[C@@H](O[C@H]2[C@@H](O)C[C@H](O[C@H]3[C@@H](O)C[C@H](O[C@H]4CC[C@@]5(C)[C@H](CC[C@@H]6[C@@H]5C[C@@H](O)[C@]5(C)[C@@H](C7=CC(=O)OC7)CC[C@]65O)C4)O[C@@H]3C)O[C@@H]2C)C[C@H](O)[C@@H]1O [Digoxin] | < 0.1 | 0.076 | < 0.1 | 0.08 |  |  |  |  |  |  |  |
| COc1cc2c(c(OC)c1OC)-c1ccc(OC)c(=O)cc1[C@@H](NC(C)=O)CC2 [Colchicine] |  |  |  |  | > 20 | 23 | > 20 |  |  |  |  |
| COc1cccc2c1C(=O)c1c(O)c3c(c(O)c1C2=O)C[C@@](O)(C(=O)CO)C[C@@H]3O[C@H]1C[C@H](N)[C@H](O)[C@H](C)O1 [Doxorubicin] | 0.042 |  | 0.028 |  | 0.131 |  | 0.699 | 24.964 | 16.64 | 4.679 | 3.119 |
